Source: PMC9916857, “Triterpenoids from Kochiae Fructus: Glucose Uptake in 3T3-L1 Adipocytes and α-Glucosidase Inhibition, In Silico Molecular Docking” (International Journal of Molecular Sciences, 2023)
Entries after “also recorded” stand apart in the source; their conditions may differ. Marks after values point to notes of the source that are not given here.

How the values were obtained:
[1] = test system: α-glucosidase; assay: In vitro α-glucosidase inhibition assay (pNPG substrate); type: biochemical; settings: for Inhibitory Rate (%): mean ± SD (n = 3); for IC50: mean ± SD, n = 3
Experimental: The α-glucosidase inhibition assay was carried out on the basis of the method reported by Zhang et al., with minor modifications. […] […] To initiate the reaction, pNPG (40 μL) was added to the reaction mixture and incubated at 37 °C for 30 min. The reaction was terminated by adding 20 μL of Na2CO3, after which the absorbance was determined at 405 nm by a microplate reader (SpectraMax190, Micro-g Biotech, Guangzhou, China).

[2] = biological target: α-glucosidase; assay: Kinetics of α-glucosidase inhibition (Lineweaver–Burk and Dixon plots); type: biochemical; settings: for Ki: Dixon plot, 1/v versus [I], read-out: Ki (inhibitor binding to α-glucosidase); for Inhibition type: Lineweaver–Burk and Dixon plots; for Change of Km and Vmax with increased concentration of inhibitor: Lineweaver–Burk plot
Experimental: (§1) The kinetic analysis of compounds 3, 9, and 13 were measured using the reaction conditions in Section 3.6. Typically, three different concentrations of each compound around the IC50 values were chosen. Under each concentration, α-glucosidase activity was assayed by varying the concentration of pNPG as a substrate. […] Ki and Ki’ values were determined from 1/v versus [I] (Dixon plot) and S/v versus [I] plots, respectively.

[3] = biological target: α-glucosidase−pNPG complex; assay: Kinetics of α-glucosidase inhibition, S/v versus [I] plot (Ki’); type: biochemical
Experimental: as §1

[4] = test system: 3T3-L1 adipocytes; assay: Cell viability (CellTiter 96 AQueous One Solution) after the glucose uptake experiment; type: cell-based, murine; settings: compounds at 20 μM, compared to the control group
Experimental: The murine 3T3-L1 preadipocytes were supplied by the American Type Culture Collection (ATCC, Manassas, VA, USA). The cells were cultured in high-glucose DMEM supplemented with 10% (v/v) newborn calf serum (NBCS), 1% (v/v) Pen-Strep solution (P/S) at 37 °C in a humidified atmosphere of 5% CO2, and then starved until the cells reached confluence (day 0). Two days later (day 2), the cells were cultured in DMEM supplemented with 10% (v/v) fetal bovine serum (FBS), 1% (v/v) P/S, 0.5 mM 3-isobutyl-1-methylxanthine (IBMX), 1 μM dexamethasone (DEX), 1 μM rosiglitazone (ROSI) and 100 nM insulin. Three days after (day 5) the induction, the culture medium was replaced with DMEM containing 10% (v/v) FBS, 1% (v/v) P/S, and 100 nM insulin for one day (day 6). […]
Cell viability was detected by using a CellTiter 96® AQueous One Solution Cell Proliferation Assay (Promega Corporation, Madison, WI, USA) according to the manufacturer’s instructions after the glucose uptake experiment. CellTiter 96® AQueous One Solution Cell Proliferation Assay reagent (20 µL/well) was added to the plate and incubated at 37 °C for 180 min before absorbance was measured at 490 nm, and the relative cell viability was calculated as follows:Relative cell viability (%) = A1/A2 × 100(2) where […].

[5] = test system: 3T3-L1 adipocytes; assay: Insulin-induced glucose uptake assay in 3T3-L1 adipocytes; type: cell-based, murine
Experimental: The murine 3T3-L1 preadipocytes were supplied by the American Type Culture Collection (ATCC, Manassas, VA, USA). The cells were cultured in high-glucose DMEM supplemented with 10% (v/v) newborn calf serum (NBCS), 1% (v/v) Pen-Strep solution (P/S) at 37 °C in a humidified atmosphere of 5% CO2, and then starved until the cells reached confluence (day 0). Two days later (day 2), the cells were cultured in DMEM supplemented with 10% (v/v) fetal bovine serum (FBS), 1% (v/v) P/S, 0.5 mM 3-isobutyl-1-methylxanthine (IBMX), 1 μM dexamethasone (DEX), 1 μM rosiglitazone (ROSI) and 100 nM insulin. Three days after (day 5) the induction, the culture medium was replaced with DMEM containing 10% (v/v) FBS, 1% (v/v) P/S, and 100 nM insulin for one day (day 6). Then the cells were completely differentiated into mature adipocytes (Figure 11).
The mature adipocytes were inoculated in a 96-well plate at 5 × 10^4 cells per well for 24 h. The 3T3-L1 adipocytes were divided into model groups (blank control), insulin group (250 ng/mL, positive control), and sample group (20 μM). […] The absorbance value was detected by a microplate reader at 505 nm. The glucose uptake rate was calculated as follows:Glucose uptake rate (%) = [1 − A2/A1] × 100(1) where A1 is the absorbance of the mixed-glucose, DMEM-supplemented control, and A2 is the absorbance of the blank, insulin, or sample group.

[6] = percent inhibition at a concentration of 50 μM

Row | Compound | IC50 [1] [µM] | Inhibitory Rate (%) [1, 6] | other results
1 | C[C@H]1O[C@H](O[C@H]2[C@H](O)[C@@H](O)[C@@H](O[C@H]3[C@H](O)[C@@H](O)C(O)O[C@@H]3CO)O[C@@H]2CO)[C@H](O)[C@@H](O)[C@@H]1N[C@H]1C=C(CO)[C@@H](O)[C@H](O)[C@H]1O (some centres unmarked) [Acarbose, acarbose, reference compound] | – | – | Inhibitory Rate (%) ([1]; percent inhibition at a concentration of 0.012 μM): 87.04 ± 0.29 ^a %
2 | CC1(C)CCC2(C(=O)O)CCC3(C)C(=CCC4C5(C)CCC(OC6OC(C(=O)O)C(O)C(OC7OCC(O)C(O)C7O)C6O)C(C)(C(=O)O)C5CCC43C)C2C1 [Compound 1, 3(β)-3-O-β-D-xylopyranosly(1→3)-β-D-glucopyranosiduronic acid-12-en-23,28-dioic acid] | > 50 | 13.71 ± 0.54 ^j % | –
3 | COC(=O)C1OC(OC2CCC3(C)C(CCC4(C)C3CC=C3C5CC(C)(C)CCC5(C(=O)O)CCC34C)C2(C)C(=O)O)C(O)C(OC2OCC(O)C(O)C2O)C1O [Compound 2, 3(β)-3-O-β-D-xylopyranosly(1→3)-β-D-glucopyranosiduronic acid 6-methyl ester-12-en-23,28-dioic acid] | > 50 | 14.05 ± 4.90 ^j % | –
4 | CC1(C)CCC2(C(=O)OC3OC(CO)C(O)C(O)C3O)CCC3(C)C(=CCC4C5(C)CC(O)C(O)C(C)(C)C5CCC43C)C2C1 [Compound 3, 2β,3β-dihydroxyolean-12-en-28-oic acid 28-O-β-D-glucopyranoside] | 23.5 ± 3.37 | 59.79 ± 1.04 ^d % | Ki [2]: 56.9 ± 1.23 µM; Inhibition type [2]: mixed-type; Change of Km and Vmax with increased concentration of inhibitor [2]: Vmax values decreased and the Km values increased; Ki’ (inhibitor binding to the α-glucosidase−pNPG complex) [3]: 47.89 ± 1.37 μM
5 | CC1(C)CC[C@]2(C(=O)O)CC[C@]3(C)C(=CC[C@@H]4[C@@]5(C)CC[C@H](O[C@@H]6O[C@H](C(=O)O)[C@@H](O)[C@H](O[C@@H]7OC[C@@H](O)[C@H](O)[C@H]7O)[C@H]6O)C(C)(C)[C@@H]5CC[C@]43C)[C@@H]2C1 [Compound 4, momordin Ic] | > 50 | 26.28 ± 1.01 ^i % | –
6 | COC(=O)C1OC(OC2CCC3(C)C(CCC4(C)C3CC=C3C5CC(C)(C)CCC5(C(=O)O)CCC34C)C2(C)C)C(O)C(OC2OCC(O)C(O)C2O)C1O (centres unmarked) [Compound 5, momordin Ic 6’-methyl ester] | > 50 | 29.62 ± 2.26 ^i % | –
7 | CCOC(=O)C1OC(OC2CCC3(C)C(CCC4(C)C3CC=C3C5CC(C)(C)CCC5(C(=O)O)CCC34C)C2(C)C)C(O)C(OC2OCC(O)C(O)C2O)C1O (centres unmarked) [Compound 6, momordin Ic ethyl ester] | > 50 | 35.00 ± 0.40 ^h % | –
8 | CC1(C)CC[C@]2(C(=O)O[C@@H]3O[C@H](CO)[C@@H](O)[C@H](O)[C@H]3O)CC[C@]3(C)C(=CC[C@@H]4[C@@]5(C)CC[C@H](O[C@@H]6O[C@H](C(=O)O)[C@@H](O)[C@H](O[C@@H]7OC[C@@H](O)[C@H](O)[C@H]7O)[C@H]6O)C(C)(C)[C@@H]5CC[C@]43C)[C@@H]2C1 [Compound 7, momordin IIc] | > 50 | 52.71 ± 0.85 ^f % | –
9 | COC(=O)C1OC(OC2CCC3(C)C(CCC4(C)C3CC=C3C5CC(C)(C)CCC5(C(=O)OC5OC(CO)C(O)C(O)C5O)CCC34C)C2(C)C)C(O)C(OC2OCC(O)C(O)C2O)C1O (centres unmarked) [Compound 8, momordin IIc 6’-methyl ester] | > 50 | 57.02 ± 36.3 ^e % | –
10 | CC1(C)CCC2(C(=O)OC3OC(CO)C(O)C(O)C3O)CCC3(C)C(=CCC4C5(C)CCC(OC6OC(C(=O)O)C(O)C(OC7OCC(O)C(O)C7O)C6OC6OC(CO)C(O)C(O)C6O)C(C)(C)C5CCC43C)C2C1 [Compound 9, 2’-O-β-D-glucopyranosyl momordin IIc] | 4.29 ± 0.52 | 74.41 ± 1.02 ^b % | Ki [2]: 48.88 ± 0.07 µM; Inhibition type [2]: mixed-type; Change of Km and Vmax with increased concentration of inhibitor [2]: both the Km and Vmax values decreased; Ki’ (inhibitor binding to the α-glucosidase−pNPG complex) [3]: 19.52 ± 0.26 μM
11 | CC1(C)CC[C@]2(C(=O)O)CC[C@]3(C)C(=CC[C@@H]4[C@@]5(C)CC[C@H](O)[C@@](C)(C(=O)O)[C@@H]5CC[C@]43C)[C@@H]2C1 [Compound 11, gypsogenic acid] | > 50 | 53.98 ± 1.65 ^e % | –
12 | CC1(C)CCC2(C(=O)OC3OC(CO)C(O)C(O)C3O)CCC3(C)C(=CCC4C5(C)CCC(O)C(C)(C)C5CCC43C)C2C1 [Compound 12, oleanolic acid 28-O-β-D-glucopyranosyl ester] | – | 41.48 ± 1.66 ^g % | –
13 | CC1(C)CC2C3=CCC4[C@@]5(C)CC[C@H](O)C(C)(C)C5CC[C@@]4(C)[C@]3(C)CC[C@@]2(C(=O)O)[C@H](O)C1 (some centres unmarked) [Compound 13] | 17 ± 2.7 | 69.91 ± 0.59 ^c % | Ki [2]: 13.6 ± 0.42 µM; Inhibition type [2]: mixed-type; Change of Km and Vmax with increased concentration of inhibitor [2]: both the Km and Vmax values decreased; Cell viability / cytotoxicity [4]: without inhibitory effects on cell viability; Ki’ (inhibitor binding to the α-glucosidase−pNPG complex) [3]: 8.82 ± 0.06 μM; Effect on glucose uptake ([5]; compound at 20 μM, 24 h, p < 0.001 versus model group): potent effect; also recorded: strong effect; also recorded: significant promotion
14 | CC1(C)C=C2C3CCC4[C@@]5(C)CC[C@H](O[C@@H]6O[C@H](CO)[C@@H](O)[C@H](O)[C@H]6O)C(C)(C)C5CC[C@@]4(C)[C@]3(C)CC[C@@]2(C(=O)O)CC1 (stereo partly drawn) [Compound 14, (3β)-3-(β-D-glucopyranosyloxy)olean-18-en-28-oic acid] | > 50 | 17.49 ± 4.45 ^j % | –
15 | insulin | – | – | Effect on glucose uptake ([5]; insulin at 250 ng/mL (positive control), p < 0.001 versus control group): significantly promote
